# Assay results published in patent publication US12378224B2 (Dong-A Socio Holdings Co., Ltd., priority 2016, dated 2025).
# Biological target: human MER (528-end) (Homo sapiens (Human), UniProt Q12866)
# Assay: HTRF Kinase Activity Biochemical Assay (KinEASE-TK)
# Conditions: 10 uM ATP
# In short: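 Activity read-out is the HTRF ratio (665 nm over 620 nm emission, ×10,000; excitation 340 nm) after 1 h detection with 0.375 nM Eu3+-cryptate anti-TK antibody plus 0.062 uM SA-XL665. Preceding kinase step: human MER (528-end), biotinylated TK substrate, 1 h, room temperature.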
# Sequence of human MER (528-end) (Q12866 528-999 limits assumed): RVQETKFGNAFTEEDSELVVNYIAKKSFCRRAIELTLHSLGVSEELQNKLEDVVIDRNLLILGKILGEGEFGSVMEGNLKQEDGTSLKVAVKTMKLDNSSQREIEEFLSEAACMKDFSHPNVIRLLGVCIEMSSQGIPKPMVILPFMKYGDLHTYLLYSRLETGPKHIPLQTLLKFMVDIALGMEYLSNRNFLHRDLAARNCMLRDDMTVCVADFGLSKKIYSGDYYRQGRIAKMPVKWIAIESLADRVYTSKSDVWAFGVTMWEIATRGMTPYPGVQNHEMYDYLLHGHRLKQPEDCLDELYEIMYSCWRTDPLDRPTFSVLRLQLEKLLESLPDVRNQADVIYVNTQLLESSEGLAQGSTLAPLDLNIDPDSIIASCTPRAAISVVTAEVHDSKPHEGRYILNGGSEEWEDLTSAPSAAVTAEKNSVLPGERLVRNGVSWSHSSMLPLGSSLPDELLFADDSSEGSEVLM
row,SMILES,IC50 [nM]
1,"Nc1ncc(Br)cc1C(=O)N[C@@H]1CCN(C(=O)c2ccc(-c3ccc(F)cc3Cl)cc2)C1 [Example 580, (R)-2-amino-5-bromo-N-(1-(2′-chloro-4′-fluoro-[1,1′-biphenyl]-4-carbonyl)pyrrolidin-3-yl)nicotinamide]",100 to 1000
2,"Nc1ncc(-c2cncc(C(=O)O)c2)cc1C(=O)N[C@@H]1CCN(C(=O)c2ccc(-c3ccc(F)cc3Cl)cc2)C1 [Example 587, (R)-6′-amino-5′-((1-(2′-chloro-4′-fluoro-[1,1′-biphenyl]-4-carbonyl)pyrrolidin-3-yl)carbamoyl)-[3,3′-bipyridine]-5-carboxylic acid]",100 to 1000
3,"CN(C(=O)c1cc(-c2cnn(C)c2)cnc1N)[C@@H]1CCN(Cc2ccccc2)C1 [Example 623, (R)-2-amino-N-(1-benzylpyrrolidin-3-yl)-N-methyl-5-(1-methyl-1H-pyrazol-4-yl)nicotinamide]",> 1000
4,"Nc1ncc(-c2cnn(C3CCNCC3)c2)cc1C(=O)N[C@@H]1CCN(C(CO)c2ccccc2)C1 (stereo partly drawn) [Example 629, 2-amino-N-((3R)-1-(2-hydroxy-1-phenylethyl)pyrrolidin-3-yl)-5-(1-(piperidin-4-yl)-1H-pyrazol-4-yl)nicotinamide]",> 1000
5,"CN1CCN(Cc2ccc(C(=O)N3CC[C@@H](NC(=O)c4cc(-c5cnn(C)c5)cnc4N)C3)cc2)CC1 [Example 640, (R)-2-amino-5-(1-methyl-1H-pyrazol-4-yl)-N-(1-(4-((4-methylpiperazin-1-yl)methyl)benzoyl)pyrrolidin-3-yl)nicotinamide]",> 1000
6,"Cn1cc(-c2cnc(N)c(C(=O)N[C@@H]3CCN(C(=O)c4ccc(CN5CCN(CCO)CC5)cc4)C3)c2)cn1 [Example 641, (R)-2-amino-N-(1-(4-((4-(2-hydroxyethyl)piperazin-1-yl)methyl)benzoyl)pyrrolidin-3-yl)-5-(1-methyl-1H-pyrazol-4-yl)nicotinamide]",> 1000
7,"Cn1cc(-c2cnc(N)c(C(=O)N[C@@H]3CCN(C(=O)c4ccc(-c5cc(F)ccc5Cl)cc4)C3)c2)cn1 [Example 667, (R)-2-amino-N-(1-(2′-chloro-5′-fluoro-[1,1′-biphenyl]-4-carbonyl)pyrrolidin-3-yl)-5-(1-methyl-1H-pyrazol-4-yl)nicotinamide]",10 to 100
8,"Cn1cc(-c2cnc(N)c(C(=O)N[C@@H]3CCN(C(=O)c4cccc5c(Br)cccc45)C3)c2)cn1 [Example 669, (R)-2-amino-N-(1-(5-bromo-1-naphthoyl)pyrrolidin-3-yl)-5-(1-methyl-1H-pyrazol-4-yl)nicotinamide]",> 1000
9,"Cn1cc(-c2cnc(N)c(C(=O)N[C@@H]3CCN(C(=O)c4ccc(-c5ccc(CC#N)cc5)cc4)C3)c2)cn1 [Example 676, (R)-2-amino-N-(1-(4′-(cyanomethyl)-[1,1′-biphenyl]-4-carbonyl)pyrrolidin-3-yl)-5-(1-methyl-1H-pyrazol-4-yl)nicotinamide]",100 to 1000
10,"Cn1cc(-c2cnc(N)c(C(=O)N[C@H]3CN(C(=O)c4ccc(-c5ccc(F)cc5Cl)cc4)C[C@H]3F)c2)cn1 [Example 682, 2-amino-N-((3S,4R)-1-(2′-chloro-4′-fluoro-[1,1′-biphenyl]-4-carbonyl)-4-fluoropyrrolidin-3-yl)-5-(1-methyl-1H-pyrazol-4-yl)nicotinamide]",> 1000
11,"COC(=O)[C@H]1C[C@@H](NC(=O)c2cc(-c3cnn(C)c3)cnc2N)CN1C(=O)c1ccc(-c2ccccc2)cc1 [Example 683, methyl (2R,4R)-1-([1,1′-biphenyl]-4-carbonyl)-4-(2-amino-5-(1-methyl-1H-pyrazol-4-yl)nicotinamido)pyrrolidine-2-carboxylate]",100 to 1000
12,"COC(=O)[C@H]1C[C@@H](NC(=O)c2cc(-c3cnn(C)c3)cnc2N)CN1C(=O)c1cccc(-c2ccccc2)c1 [Example 684, Methyl (2R,4R)-1-([1,1′-biphenyl]-3-carbonyl)-4-(2-amino-5-(1-methyl-1H-pyrazol-4-yl)nicotinamido)pyrrolidine-2-carboxylate]",> 1000
13,"COC(=O)[C@@H]1C[C@H](NC(=O)c2cc(-c3cnn(C)c3)cnc2N)CN1C(=O)c1ccc(-c2ccccc2)cc1 [Example 685, methyl (2S,4S)-1-([1,1′-biphenyl]-4-carbonyl)-4-(2-amino-5-(1-methyl-1H-pyrazol-4-yl)nicotinamido)pyrrolidine-2-carboxylate]",> 1000
14,"COC(=O)[C@@H]1C[C@H](NC(=O)c2cc(-c3cnn(C)c3)cnc2N)CN1C(=O)c1cccc(-c2ccccc2)c1 [Example 686, methyl (2S,4S)-1-([1,1′-biphenyl]-3-carbonyl)-4-(2-amino-5-(1-methyl-1H-pyrazol-4-yl)nicotinamido)pyrrolidine-2-carboxylate]",> 1000
15,"CCOC(=O)C1CN(C(=O)c2cccc(-c3ccccc3)c2)CC1NC(=O)c1cc(-c2cnn(C)c2)cnc1N (centres unmarked) [Example 688, ethyl 1-([1,1′-biphenyl]-3-carbonyl)-4-(2-amino-5-(1-methyl-1H-pyrazol-4-yl)nicotinamido)pyrrolidine-3-carboxylate]",> 1000
16,"Cc1cc(-c2cc(F)ccc2Cl)ccc1C(=O)N1CC[C@@H](NC(=O)c2cc(-c3cnn(C)c3)cnc2N)C1 [Example 691, (R)-2-amino-N-(1-(2′-chloro-5′-fluoro-3-methyl-[1,1′-biphenyl]-4-carbonyl)pyrrolidin-3-yl)-5-(1-methyl-1H-pyrazol-4-yl)nicotinamide]",> 1000
17,"Cc1cc(C(=O)N2CC[C@@H](NC(=O)c3cc(-c4cnn(C)c4)cnc3N)C2)ccc1-c1cc(F)ccc1Cl [Example 692, (R)-2-amino-N-(1-(2′-chloro-5′-fluoro-2-methyl-[1,1′-biphenyl]-4-carbonyl)pyrrolidin-3-yl)-5-(1-methyl-1H-pyrazol-4-yl)nicotinamide]",10 to 100
18,"Cn1cc(-c2cnc(N)c(C(=O)N[C@@H]3CCN(C(=O)c4ccc(-c5cc(F)ccc5Cl)cc4Cl)C3)c2)cn1 [Example 693, (R)-2-amino-N-(1-(2′,3-dichloro-5′-fluoro-[1,1′-biphenyl]-4-carbonyl)pyrrolidin-3-yl)-5-(1-methyl-1H-pyrazol-4-yl)nicotinamide]",> 1000

# The next lines start with the values.
row,IC50 [nM],SMILES
1,100 to 1000,"CC(=O)Nc1ccc(-c2cnc(N)c(C(=O)N[C@@H]3CCN(C(=O)c4ccc(-c5ccc(F)cc5Cl)cc4)C3)c2)cn1 [Example 582, (R)-6′-acetamido-6-amino-N-(1-(2′-chloro-4′-fluoro-[1,1′-biphenyl]-4-carbonyl)pyrrolidin-3-yl)-[3,3′-bipyridine]-5-carboxamide]"
2,10 to 100,"Nc1ncc(-c2ccc(C(=O)N3CCN(CCO)CC3)cc2)cc1C(=O)N[C@@H]1CCN(C(=O)c2ccc(-c3ccccc3Cl)cc2)C1 [Example 589, (R)-2-amino-N-(1-(2′-chloro-[1,1′-biphenyl]-4-carbonyl)pyrrolidin-3-yl)-5-(4-(4-(2-hydroxyethyl)piperazine-1-carbonyl)phenyl)nicotinamide]"
3,> 1000,"CN(C(=O)N1CC[C@@H](NC(=O)c2cc(-c3cnn(C)c3)cnc2N)C1)c1ccccc1 [Example 625, (R)-2-amino-N-(1-(methyl(phenyl)carbamoyl)pyrrolidin-3-yl)-5-(1-methyl-1H-pyrazol-4-yl)nicotinamide]"
4,> 1000,"Nc1ncc(-c2cnn(C3CCNCC3)c2)cc1C(=O)N[C@@H]1CCN(Cc2ccnc(Cl)c2)C1 [Example 631, (R)-2-amino-N-(1-((2-chloropyridin-4-yl)methyl)pyrrolidin-3-yl)-5-(1-(piperidin-4-yl)-1H-pyrazol-4-yl)nicotinamide]"
5,100 to 1000,"CC(C)Cn1cc(-c2cnc(N)c(C(=O)N[C@@H]3CCN(Cc4ccccc4Cl)C3)c2)cn1 [Example 632, (R)-2-amino-N-(1-(2-chlorobenzyl)pyrrolidin-3-yl)-5-(1-isobutyl-1H-pyrazol-4-yl)nicotinamide]"
6,> 1000,"Cn1cc(-c2cnc(N)c(C(=O)N[C@@H]3CCN(C(=O)c4ccc(-c5ccc(N)cc5)cc4)C3)c2)cn1 [Example 662, (R)-2-amino-N-(1-(4′-amino-[1,1′-biphenyl]-4-carbonyl)pyrrolidin-3-yl)-5-(1-methyl-1H-pyrazol-4-yl)nicotinamide]"
7,10 to 100,"Cn1cc(-c2cnc(N)c(C(=O)N[C@@H]3CCN(C(=O)c4ccc(-c5cc(F)cc(Cl)c5)cc4)C3)c2)cn1 [Example 663, (R)-2-amino-N-(1-(3′-chloro-5′-fluoro-[1,1′-biphenyl]-4-carbonyl)pyrrolidin-3-yl)-5-(1-methyl-1H-pyrazol-4-yl)nicotinamide]"
8,100 to 1000,"Cn1cc(-c2cnc(N)c(C(=O)N[C@@H]3CCN(C(=O)c4ccc(-c5cc(Cl)c(F)c(Cl)c5)cc4)C3)c2)cn1 [Example 664, (R)-2-amino-N-(1-(3′,5′-dichloro-4′-fluoro-[1,1′-biphenyl]-4-carbonyl)pyrrolidin-3-yl)-5-(1-methyl-1H-pyrazol-4-yl)nicotinamide]"
9,> 1000,"CCc1cc(CO[C@H]2CN(C(=O)c3ccc(-c4ccccc4)cc3)C[C@@H]2NC(=O)c2cc(-c3cnn(C)c3)cnc2N)ccc1C [Example 674, N-((3S,4S)-1-([1,1′-biphenyl]-4-carbonyl)-4-((3-ethyl-4-methylbenzyl)oxy)pyrrolidin-3-yl)-2-amino-5-(1-methyl-1H-pyrazol-4-yl)nicotinamide]"
10,> 1000,"CCc1cc(CO[C@H]2CN(C(=O)c3cccc(-c4ccccc4)c3)C[C@@H]2NC(=O)c2cc(-c3cnn(C)c3)cnc2N)ccc1C [Example 675, N-((3S,4S)-1-([1,1′-biphenyl]-3-carbonyl)-4-((3-ethyl-4-methylbenzyl)oxy)pyrrolidin-3-yl)-2-amino-5-(1-methyl-1H-pyrazol-4-yl)nicotinamide]"
11,100 to 1000,"Cn1cc(-c2cnc(N)c(C(=O)N[C@@H]3CCN(C(=O)c4ccc(-c5ccc(C(N)=O)c(F)c5)cc4)C3)c2)cn1 [Example 680, (R)-2-amino-N-(1-(4′-carbamoyl-3′-fluoro-[1,1′-biphenyl]-4-carbonyl)pyrrolidin-3-yl)-5-(1-methyl-1H-pyrazol-4-yl)nicotinamide]"
